Earlier results on one compound are cited in US20160271257A1, “Low Molecular Weight Immune-Modulators As Adjuvants for Specific Immunotherapy” (PLS-DESIGN GMBH, priority 2013, published 2016).

By IC50 is commonly meant the point on the concentration scale where inhibition reaches its midpoint.

Values after ≈ are worked out from the molar mass of the structure shown.

The target in one series is T1, C3aR (Homo sapiens, UniProt Q16581).
T1 sequence (Q16581 1-482): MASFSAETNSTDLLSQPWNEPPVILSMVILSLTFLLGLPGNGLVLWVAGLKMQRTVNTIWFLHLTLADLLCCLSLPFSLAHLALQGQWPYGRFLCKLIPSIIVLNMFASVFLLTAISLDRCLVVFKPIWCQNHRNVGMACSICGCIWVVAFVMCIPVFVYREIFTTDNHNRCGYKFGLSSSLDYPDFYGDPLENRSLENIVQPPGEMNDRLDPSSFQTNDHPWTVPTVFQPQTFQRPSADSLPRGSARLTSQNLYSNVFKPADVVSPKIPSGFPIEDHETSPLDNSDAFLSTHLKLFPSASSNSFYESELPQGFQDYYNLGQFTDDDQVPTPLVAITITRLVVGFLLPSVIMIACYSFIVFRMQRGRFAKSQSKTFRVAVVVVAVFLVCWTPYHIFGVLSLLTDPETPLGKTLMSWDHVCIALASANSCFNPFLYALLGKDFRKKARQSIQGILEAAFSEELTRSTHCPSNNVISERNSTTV
As to conditions: human neutrophils; read-out: IC50 of inhibition of C3a-induced calcium mobilization. Background: Calcium flux is commonly read through the fluorescence of an indicator in the cells.

Assay in series [1]: not given
The source holds these as a separate data set.

Turning to `N=C(N)NCCCC(NC(=O)COCC(c1ccccc1)c1ccccc1)C(=O)O` [SB290157, N^2-[(2,2-dipheneylethoxy)acetyl]-L-arginine], the in vivo half-life result is given as “short”. Also, the concentration for half-maximal inhibition (IC50) on C3aR was 28 nM. In addition, in series [1], the “solubility in DMSO” value is 5 mg/mL (≈ 12.1 mM); the “solubility in saline solution containing 5% ethanol and 10% Cremaphor-EL” value is “at least 10 mg/ml”.
